In general, inhibition refers to how much of the control response was suppressed. For orientation: chromatographic logP means lipophilicity estimated from chromatographic retention.

Bounds are passed on as bounds.

Data set [1] has as its system Colletotrichum lindemuthianum. The data set is described as follows: Colletotrichum lindemuthianum in vitro cell test. As to conditions: 144 h, 20 ppm of active ingredient, liquid culture, 6 days incubation, read-out: efficacy (inhibition of fungal growth). The format is cell-based. On the procedure: (§1) • Solvent: […] Fungicides were solubilized in DMSO and the solution used to prepare the required range of concentrations. The final concentration of DMSO used in the assay was 1%. A spore suspension of Colletotrichum lindemuthianum was prepared and diluted to the desired spore density. Fungicides were evaluated for their ability to inhibit spore germination and mycelium growth in liquid culture assay. The compounds were added in the desired concentration to the culture medium with spores. After 6 days incubation, fungi-toxicity of compounds was determined by spectrometric measurement of mycelium growth. Inhibition of fungal growth was determined by comparing the absorbance values in wells containing the fungicides with the absorbance in control wells without fungicides.

The nature of data set [2]: Measurement of Log P values by HPLC on reversed phase columns (EEC directive 79/831 Annex V.A8). Format: physicochemical. On the procedure: Measurement of Log P values as provided herein was performed according to EEC directive 79/831 Annex V.A8 by HPLC (High Performance Liquid Chromatography) on reversed phase columns with the following methods: • ^[a] Log P value is determined by measurement of LC-UV, in an acidic range, with 0.1% formic acid in water and acetonitrile as eluent (linear gradient from 10% acetonitrile to 95% acetonitrile). • ^[b] Log P value is determined by measurement of LC-UV, in a neutral range, with 0.001 molar ammonium acetate solution in water and acetonitrile as eluent (linear gradient from 10% acetonitrile to 95% acetonitrile). • ^[c] Log P value is determined by measurement of LC-UV, in an acidic range, with 0.1% phosphoric acid and acetonitrile as eluent (linear gradient from 10% acetonitrile to 95% acetonitrile).
If more than one Log P value is available within the same method, all the values are given and separated by “+”. […]

A further data set relates to Alternaria alternata. The data set is described as follows: Alternaria alternata in vitro cell test. Format: cell-based. As to conditions: 120 h, 20 ppm of active ingredient, liquid culture, 5 days incubation, read-out: efficacy (inhibition of fungal growth). The method, then:
as §1, with “≤1%.” for “1%.”, “Alternaria alternata” for “Colletotrichum lindemuthianum”, “5” for “6”

For another data set, the system named is Pyricularia oryzae. Nature of the data set: microbe, parasite or virus in culture. The format is cell-based. Conditions: 120 h, read-out: efficacy (inhibition of fungal growth).
A further data set concerns Fusarium culmorum. The data set is described as follows: Fusarium culmorum in vitro cell test. Format: cell-based. As to conditions: 96 h, 20 ppm of active ingredient, liquid culture, 4 days incubation, read-out: efficacy (inhibition of fungal growth). The method, then: • Solvent: DMSO • Culture medium: 14.6 g anhydrous D-glucose (VWR), 7.1 g Mycological Peptone (Oxoid), 1.4 g granulated Yeast Extract (Merck), QSP 1 liter • Inoculum: spore suspension
Fungicides were solubilized in DMSO and the solution used to prepare the required range of concentrations. The final concentration of DMSO used in the assay was ≤1%.
A spore suspension of Fusarium culmorum was prepared and diluted to the desired spore density.
Fungicides were evaluated for their ability to inhibit spore germination and mycelium growth in liquid culture assay. The compounds were added in the desired concentration to the culture medium with spores. After 4 days incubation, fungi-toxicity of compounds was determined by spectrometric measurement of mycelium growth. Inhibition of fungal growth was determined by comparing the absorbance values in wells containing the fungicides with the absorbance in control wells without fungicides.

The next data set has as its system Septoria tritici. The data set is described as follows: Septoria tritici in vitro cell test. Conditions: Zymoseptoria tritici, 168 h; 20 ppm of active ingredient; liquid culture, 7 days incubation; read-out: efficacy (inhibition of fungal growth). Format: cell-based. On the procedure: • Solvent: DMSO • Culture medium: 1 g KH2PO4 (VWR), 1 g K2HPO4 (VWR), 0.5 g Urea (VWR), 3 g KNO3 (Prolabo), 10 g saccharose (VWR), 0.5 g MgSO4, 7H2O (Sigma), 0.07 g CaCl2, 2H2O (Prolabo), 0.2 mg MnSO4, H2O (Sigma), 0.6 mg CuSO4, 5H2O (Sigma), 7.9 mg ZnSO4, 7H2O (Sigma), 0.1 mg H3BO3 (Merck), 0.14 mg NaMoO4, 2H2O (Sigma), 2 mg thiamine (Sigma), 0.1 mg biotine (VWR), 4 mg FeSO4, 7H2O (Sigma), QSP 1 liter • Inoculum: spore suspension Fungicides were solubilized in DMSO and the solution used to prepare the required range of concentrations. The final concentration of DMSO used in the assay was 1%. A spore suspension of Septoria tritici was prepared and diluted to the desired spore density. Fungicides were evaluated for their ability to inhibit spore germination and mycelium growth in liquid culture assay. The compounds were added in the desired concentration to the culture medium with spores. […] Inhibition of fungal growth was determined by comparing the absorbance values in wells containing the fungicides with the absorbance in control wells without fungicides.

Where [3] appears, read: method [a]: LC-UV, acidic range, 0.1% formic acid in water and acetonitrile as eluent.
The mark [4] stands for this setting: method [b]: LC-UV, neutral range, 0.001 molar ammonium acetate solution in water and acetonitrile as eluent.

For `Cc1ccc(C[C@@H]2CON=C(c3c(Oc4cccc(C(F)(F)F)c4)cnc4ccccc34)N2)c(C)c1` (racemic) [Compound I-004], the inhibition at 20 ppm (in data set [1]; in the data set on Alternaria alternata; in the data set on Pyricularia oryzae; in the data set on Fusarium culmorum) was at least 70% throughout. The compound also displayed a chromatographic logP in data set [2] (setting [3]) of 4.19.
As to `FC(F)(F)c1cccc(Oc2cnc3ccccc3c2C2=NC[C@@H](Cc3ccc(Cl)cc3)N2)c1` (racemic) [Compound I-015], the inhibition at 20 ppm (in the data set with Septoria tritici; in data set [1]; in the data set with Alternaria alternata; in the data set with Pyricularia oryzae; in the data set with Fusarium culmorum) was at least 70% throughout. The compound further had a chromatographic logP in data set [2] (setting [3]) of 2.46.
For `Cc1ccc(CC2CN=C(c3c(Oc4cccc(C(F)(F)F)c4)cnc4ccccc34)N2)c(C)c1` (racemic) [Compound I-011, 4-[(5RS)-5-(2,4-dimethylbenzyl)-4,5-dihydro-1H-imidazol-2-yl]-3-[3-(trifluoromethyl)phenoxy]quinoline], the inhibition at 20 ppm (in data set [1]; in the data set with Alternaria alternata; in the data set with Pyricularia oryzae) was at least 70% each time. This compound also showed a chromatographic logP in data set [2] (setting [3]) of 2.57.
In the case of `Cc1ccc(C[C@@H]2CN=C(c3c(Oc4cccc(Cl)c4)nnc4ccccc34)N2)c(C)c1` (racemic) [Compound I-012], the inhibition at 20 ppm (in data set [1]; in the data set with Alternaria alternata; in the data set with Pyricularia oryzae) was at least 70% throughout. In data set [2] (setting [3]), the chromatographic logP was 2.46.
As for `Cn1cc(-c2ccc(C[C@@H]3CON=C(c4c(Oc5cccc(C(F)(F)F)c5)nnc5ccccc45)N3)c(Cl)c2)cn1` (racemic) [Compound I-008], the inhibition at 20 ppm (in data set [1]; in the data set on Alternaria alternata; in the data set with Pyricularia oryzae) was at least 70% in each case. Moreover, the chromatographic logP in data set [2] (setting [3]) worked out at 3.37.
Regarding `Cc1cccc(Oc2nnc3ccccc3c2C2=NOCC(Cc3ccc(C)cc3C)N2)c1` (racemic) [Compound I-001, 4-[(5RS)-5-(2,4-dimethylbenzyl)-5,6-dihydro-4H-1,2,4-oxadiazin-3-yl]-3-(3-methylphenoxy)cinnoline], the inhibition at 20 ppm (in data set [1]; with Alternaria alternata; in the data set with Pyricularia oryzae; with Fusarium culmorum) was at least 70% in each case. The chromatographic logP in data set [2] (setting [3]) stood at 3.85.
For the compound `Cc1ccc(C[C@@H]2CON=C(c3c(Oc4cccc(C(F)(F)F)c4)nnc4cc(C)ccc34)N2)c(C)c1` (racemic) [Compound I-005], the inhibition at 20 ppm (in data set [1]; in the data set on Alternaria alternata; with Pyricularia oryzae; in the data set with Fusarium culmorum) was at least 70% in each case. Further, the chromatographic logP was found to be 4.32 in data set [2] (setting [3]) and 4.27 in data set [2] (setting [4]).
For the compound `Cc1ccc(C[C@@H]2CON=C(c3c(Oc4cccc(C5CC5)c4)nnc4ccccc34)N2)c(C)c1` (racemic) [Compound I-003], the inhibition at 20 ppm (in data set [1]; with Alternaria alternata; with Pyricularia oryzae; with Fusarium culmorum) was at least 70% each time. Further, the chromatographic logP in data set [2] (setting [3]) was found to be 4.11.
For `Cc1ccc(C[C@@H]2CON=C(c3c(Oc4cccc(C5CC5)c4F)cnc4nccnc34)N2)c(C)c1` (racemic) [Compound I-014], the inhibition at 20 ppm (with Septoria tritici; in data set [1]; with Alternaria alternata; in the data set with Fusarium culmorum) was at least 70% in each case. In data set [2] (setting [3]), this compound gave a chromatographic logP of 3.5.
In the case of `Cc1ccc(C[C@@H]2CON=C(c3c(Oc4cccc(C)c4F)cnc4ccccc34)N2)c(C)c1` (racemic) [Compound I-020], the chromatographic logP in data set [2] (setting [3]) was 4.15.
Still for that read-out and setting: with `Cc1ccc(C[C@H](CON)NC(=O)c2c(Oc3cccc(Br)c3F)nnc3c2CCCC3)c(C)c1` (racemic) [Compound 4-12] the figure was 2.75.
Regarding `O=C(O)c1c(Oc2cccc(C(F)(F)F)c2)nnc2c1CCC2` [Compound 1-23], the chromatographic logP in data set [2] (setting [3]) was 1.75; in data set [2] (setting [4]), 0.44.
Compound `Cc1ccc(CC2CNN=C(c3c(Oc4cccc(C(F)(F)F)c4)cnc4ccccc34)N2)c(C)c1` (racemic) [Compound I-010, 4-[(5RS)-5-(2,4-dimethylbenzyl)-1,4,5,6-tetrahydro-1,2,4-triazin-3-yl]-3-[3-(trifluoromethyl)phenoxy]quinoline] came in with a chromatographic logP in data set [2] (setting [3]) of 2.57. For the same compound, the inhibition at 20 ppm in the data set with Alternaria alternata is at least 70%.
With `Cc1ccc(C[C@H](CON)NC(=O)c2c(Oc3cccc(C(F)(F)F)c3)nnc3c2CCCC3)c(C)c1` (racemic) [Compound 4-10], the chromatographic logP in data set [2] (setting [3]) is 2.91.
In the case of `Cc1ccc(C[C@@H]2CON=C(c3c(Oc4cccc(Br)c4F)cnc4ccccc34)N2)c(Cl)c1` (racemic) [Compound I-030], in data set [2] (setting [3]), the chromatographic logP is 4.37.
In data set [2] (setting [3]), `Cc1ccc(C[C@H](CON)NC(=O)c2c(Oc3cccc(C(F)F)c3)nnc3c2CCCC3)c(C)c1` (racemic) [Compound 4-14] showed a chromatographic logP of 2.55.
`C=Cc1cccc(Oc2cnc3ccccc3c2C(=O)N[C@@H](CON)Cc2ccc(C)cc2Cl)c1` (racemic) [Compound 4-09]: in data set [2] (setting [3]), the chromatographic logP came to 3.12.
For `Cc1ccc(CC2CON=C(c3c(Oc4cccc(Cl)c4)nnc4ccccc34)N2)c(C)c1` (racemic) [Compound I-002, 3-(3-chlorophenoxy)-4-[(5RS)-5-(2,4-dimethylbenzyl)-5,6-dihydro-4H-1,2,4-oxadiazin-3-yl]cinnoline], the inhibition at 20 ppm (in data set [1]; in the data set with Alternaria alternata; with Pyricularia oryzae; in the data set with Fusarium culmorum) was at least 70% throughout. In data set [2] (setting [3]), this compound showed a chromatographic logP of 3.96.
As for `Cc1ccc(C[C@H](CCl)NC(=O)c2c(Oc3cccc(C(F)F)c3)cnc3ccccc23)c(Cl)c1` (racemic) [Compound 10-05], the chromatographic logP in data set [2] (setting [3]) turned out to be 4.33.
In data set [2] (setting [3]), `Cc1ccc(C[C@H](CON)NC(=O)c2c(Oc3cccc(C4CC4)c3F)nnc3c2CCC3)c(C)c1` (racemic) [Compound 4-15] came in with a chromatographic logP of 2.83.
Regarding `Cc1ccc(CC(CON2C(=O)c3ccccc3C2=O)NC(=O)c2c(Oc3cccc(Cl)c3)nnc3ccccc23)c(C)c1` (racemic) [Compound 3-01, 3-(3-chlorophenoxy)-N-{(2RS)-1-(2,4-dimethylphenyl)-3-[(1,3-dioxo-1,3-dihydro-2H-isoindol-2-yl)oxy]propan-2-yl}cinnoline-4-carboxamide], the chromatographic logP in data set [2] (setting [3]) was found to be 4.49.
In data set [2] (setting [3]), `Cc1ccc(C[C@H](CON)NC(=O)c2c(Oc3cccc(Cl)c3F)nnc3c2CCCC3)c(C)c1` (racemic) [Compound 4-11] yielded a chromatographic logP of 2.7.

These data come from patent US12673942B2, “Azabicyclyl-substituted heterocycles as fungicides” (Bayer Aktiengesellschaft, priority 2020, dated 2026).
